From paper PMC3653620 (Investigative radiology, 2012)
“Also recorded” adds a separate entry of the source. Like-named read-outs stand apart in the source and are kept apart here. Where a SMILES comes first, the peptide text is derived from it. Bridges are numbered along the chain shown (N, C = ends). [ ]: non-standard residue; d: D form. The star is where a group is joined. X1 = O=C(O)CN1CCN(CC(=O)O)CCN(C(CCC(=O)NCC[C@H](NC(=O)CCC(C(=O)O)N2CCN(CC(=O)O)CCN(CC(=O)O)CCN(CC(=O)O)CC2)C(=O)NCc2ccc(CN*)cc2)C(=O)O)CCN(CC(=O)O)CC1; DOTAGA = O=C(O)CN1CCN(CC(=O)O)CCN(C(CCC(=O)*)C(=O)O)CCN(CC(=O)O)CC1; Tyr(3-Cl) = N[C@@H](Cc1ccc(O)c(Cl)c1)C(=O)O; Hyp = O=C(O)[C@@H]1C[C@@H](O)CN1; Dab = NCC[C@H](N)C(=O)O

Key:
[1] = system: thrombi in the heart chambers, arteries or veins; conditions: animal models and clinical trials; ref [32]-[43]; cited from earlier work
[2] = cited from earlier work
[3] = cited from earlier work; for relaxivity at 9.4T: per molecule
[4] = system: tumor periphery (breast cancer xenograft, BT-20); experiment: Contrast agent washout from tumor periphery, T1-weighted MRI at 9.4T; type: in vivo, nude mice; human adenocarcinoma BT-20 cell line; conditions: for retention in the tumor periphery / washout, in words: Gd-DTPA 200, EP-2104R or CLP 20 μmol/kg i.v.; for t1/2 in the tumor periphery: CNR vs time
[5] = system: tumor core (breast cancer xenograft, BT-20); experiment: Contrast agent washout from tumor core, T1-weighted MRI at 9.4T; type: in vivo, nude mice; human adenocarcinoma BT-20 cell line
[6] = system: blood plasma proteins; conditions: cited from earlier work

CC[C@H](C)[C@H](NC(=O)[C@H](Cc1ccc(O)cc1)NC(=O)[C@@H]1CSSC[C@H](NC(=O)[C@@H](CCC(=O)O)NC(=O)[C@H](Cc2ccc(O)cc2)NC(=O)[C@H](CCNC(=O)CCC(C(=O)O)N2CCN(CC(=O)O)CCN(CC(=O)O)CCN(CC(=O)O)CC2)NC(=O)CCC(C(=O)O)N2CCN(CC(=O)O)CCN(CC(=O)O)CCN(CC(=O)O)CC2)C(=O)N2C[C@H](O)C[C@H]2C(=O)N[C@@H](Cc2ccc(O)c(Cl)c2)C(=O)NCC(=O)N[C@@H](CC(C)C)C(=O)N1)C(=O)N[C@@H](CCC(N)=O)C(=O)NCc1ccc(CNC(=O)[C@H](CCNC(=O)CCC(C(=O)O)N2CCN(CC(=O)O)CCN(CC(=O)O)CCN(CC(=O)O)CC2)NC(=O)CCC(C(=O)O)N2CCN(CC(=O)O)CCN(CC(=O)O)CCN(CC(=O)O)CC2)cc1 (stereo partly drawn) [EP-2104R] ({DOTAGA}-[Dab](DOTAGA)Y[dE]C[Hyp][Tyr(3-Cl)]GLCYIQ-X1; disulfide 4-9; N-terminus and C-terminus assumed)
identification of thrombi [1]: efficacious in identifying thrombi in the heart chambers, arteries or veins | excretion ([2]; in vivo): exclusive renal excretion | relaxivity at 9.4T, per Gd ([3]; 9.4T, per Gd, ref [48],[49]): 6.4 mM⁻¹ s⁻¹ | relaxivity at 9.4T ([3]; 9.4T, ref [48],[49]): 25.6 mM⁻¹ s⁻¹ | relaxivity of fibrin-bound probe at 9.4T vs clinical field strengths ([3]; fibrin-bound, 9.4T vs clinical field strengths, ref [22],[48]): much lower at this field compared to clinical field strengths | retention in the tumor periphery / washout, in words ([4]; 9.4T): stays in the tumor periphery much longer than Gd-DTPA or CLP; also recorded: significantly longer retained in the tumor periphery; also recorded: retained significantly longer in the tumor periphery than either Gd-DTPA or CLP | duration of persistent enhancement of the tumor periphery ([4]; after EP-2104R injection, 20 μmol/kg i.v., FLASH images, 9.4T): ≥ 90 min | variability of washout from the tumor periphery ([4]; in vivo): varied several fold across this ROI | washout from the tumor periphery, % slower than Gd-DTPA ([4]; in vivo): 190±75% | washout from the tumor periphery, fold slower than CLP ([4]; in vivo): 5 fold | Half-life in the tumor periphery (mean ± SEM) ([4]; in vivo, iv): 103 ± 18 min | t1/2 in the tumor periphery, Mean (St Dev) ([4]; in vivo, iv): 103 (53) min | enhancement of tumor ([5]; EP-2104R 20 μmol/kg i.v., transient, tumor core and periphery, 9.4T): transiently enhanced both the tumor core and periphery | washout from the tumor core, % slower than Gd-DTPA ([5]; in vivo): 20% | t1/2, washout from the tumor core ([5]; mouse, in vivo, iv): 45 ± 9 min | affinity for blood plasma proteins [6]: only very low affinity for blood plasma proteins

CNC[C@H](O)[C@@H](O)[C@H](O)[C@H](O)CO.CNC[C@H](O)[C@@H](O)[C@H](O)[C@H](O)CO.O=C([O-])CN(CCN(CC(=O)[O-])CC(=O)O)CCN(CC(=O)[O-])CC(=O)O.[Gd+3] [Gd-DTPA, Gadopentetate dimeglumine]
excretion ([2]; ref [22],[33]): exclusive renal excretion | relaxivity at 9.4T ([3]; 9.4T, ref [48],[49]): 3.7 mM⁻¹ s⁻¹ | retention in the tumor periphery / washout, in words ([4]; 9.4T): not retained in the tumor periphery; also recorded: significantly faster washout than EP-2104R | half-life in tumor periphery compared with EP-2104R ([4]; all animals, p<0.05 for both): significantly shorter | variability of washout from the tumor periphery ([4]; among all the mice, or across the tumor periphery ROI in some mice): very similar among all the mice | t1/2 in the tumor periphery ([4]; animal 3, Gd-DTPA 200 μmol/kg then EP-2104R 20 μmol/kg i.v., 9.4T): 27 min | t1/2 in the tumor periphery ([4]; animal 4, Gd-DTPA 200 μmol/kg then EP-2104R 20 μmol/kg i.v., 9.4T): 38 min | t1/2 in the tumor periphery ([4]; animal 5, Gd-DTPA 200 μmol/kg then EP-2104R 20 μmol/kg i.v., 9.4T): 26 min | t1/2 in the tumor periphery ([4]; animal 6, Gd-DTPA 200 μmol/kg then EP-2104R 20 μmol/kg i.v., 9.4T): 23 min | t1/2 in the tumor periphery ([4]; animal 7, Gd-DTPA 200 μmol/kg then EP-2104R 20 μmol/kg i.v., 9.4T): 38 min | t1/2 in the tumor periphery ([4]; animal 8, Gd-DTPA 200 μmol/kg then EP-2104R 20 μmol/kg i.v., 9.4T): 41 min | t1/2 in the tumor periphery ([4]; animal 9, Gd-DTPA 200 μmol/kg then CLP 20 μmol/kg i.v., 9.4T): 29 min | t1/2 in the tumor periphery ([4]; animal 10, Gd-DTPA 200 μmol/kg then CLP 20 μmol/kg i.v., 9.4T): 20 min | t1/2 in the tumor periphery ([4]; animal 11, Gd-DTPA 200 μmol/kg then CLP 20 μmol/kg i.v., 9.4T): 27 min | t1/2, washout from the tumor core ([5]; 3 mice, Gd-DTPA 200 μmol/kg followed by CLP 20 μmol/kg i.v., ±SEM, p=0.35): 28 ± 5 min | t1/2, washout from the tumor core ([5]; 6 mice, Gd-DTPA 200 μmol/kg followed by EP-2104R 20 μmol/kg i.v., ±SEM, p=0.17): 38 ± 9 min | affinity for blood plasma proteins ([6]; ref [22],[33]): only very low affinity for blood plasma proteins
